Measured values reported in patent US10576062B2, “Carbamoyloxymethyl triazole cyclohexyl acids as LPA antagonists” (Bristol-Myers Squibb Company, priority 2016, dated 2020).

The molecules below were run against T1, human LPA1 (Homo sapiens, UniProt Q92633) (assay: LPA1 functional antagonist assay (LPA-induced calcium flux)). Settings: CHO cells overexpressing human LPA1; inhibition of calcium flux induced by 10 nM LPA; read-out: hLPA1 IC50.
T1 construct: expressed in transfected cells; host or cells: Chinese hamster ovary (CHO) cells
Type: cell-based
Summary of the method: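 CHO cells overexpressing human LPA1, loaded with calcium dye 30 min at 37° C, were preincubated 20 min at room temperature with compound (0.08 nM–5 μM, 0.5% DMSO) in HBSS/20 mM HEPES/0.1% fatty acid-free BSA.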

T1 sequence (Q92633 whole entry): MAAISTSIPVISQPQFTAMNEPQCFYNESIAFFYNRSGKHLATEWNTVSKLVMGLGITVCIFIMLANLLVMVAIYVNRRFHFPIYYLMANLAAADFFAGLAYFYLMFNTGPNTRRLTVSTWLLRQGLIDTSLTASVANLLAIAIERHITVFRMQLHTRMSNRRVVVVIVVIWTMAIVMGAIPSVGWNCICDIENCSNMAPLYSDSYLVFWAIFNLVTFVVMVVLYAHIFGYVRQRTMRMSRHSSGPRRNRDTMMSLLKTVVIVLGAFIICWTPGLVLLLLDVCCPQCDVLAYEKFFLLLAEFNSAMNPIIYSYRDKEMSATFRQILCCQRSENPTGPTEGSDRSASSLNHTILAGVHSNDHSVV

IC50	Compound
29 nM	Cc1nc(-c2nnn(C)c2COC(=O)N(C)CC2CC2C)ccc1O[C@H]1CCC[C@H](C(=O)O)C1 (stereo partly drawn) [Example 262, (1S,3S)-3-((2-methyl-6-(1-methyl-5-(((methyl((2-methylcyclopropyl)methyl)carbamoyl)oxy)methyl)-1H-1,2,3-triazol-4-yl)pyridin-3-yl)oxy)cyclohexane-1-carboxylic acid]
76 nM	Cc1nc(-c2nnn(C)c2COC(=O)N(C)CC2(C)CC2)ccc1O[C@H]1CCC[C@H](C(=O)O)C1 [Example 263, (1S,3S)-3-((2-methyl-6-(1-methyl-5-(((methyl((1-methylcyclopropyl)methyl)carbamoyl)oxy)methyl)-1H-1,2,3-triazol-4-yl)pyridin-3-yl)oxy)cyclohexane-1-carboxylic acid]
76 nM	Cc1nc(-c2nnn(C)c2COC(=O)N(C)CC(C)(C)C)ccc1O[C@H]1CCC[C@H](C(=O)O)C1 [Example 264, (1S,3S)-3-((2-methyl-6-(1-methyl-5-(((methyl(neopentyl)carbamoyl)oxy)methyl)-1H-1,2,3-triazol-4-yl)pyridin-3-yl)oxy)cyclohexane-1-carboxylic acid]
68 nM	CN(CC1CCC1)C(=O)OCc1c(-c2ccc(O[C@H]3CCC[C@H](C(=O)O)C3)c(CO)n2)nnn1C [Example 265, (1S,3 S)-3-((6-(5-((((cyclobutylmethyl)(methyl)carbamoyl)oxy)methyl)-1-methyl-1H-1,2,3-triazol-4-yl)-2-(hydroxymethyl)pyridin-3-yl)oxy)cyclohexane-1-carboxylic Acid]
27 nM	CN(CC1CCC1)C(=O)OCc1c(-c2ccc(O[C@H]3CCC[C@H](C(=O)O)C3)c(CF)n2)nnn1C [Example 266, (1S,3 S)-3-((6-(5-((((cyclobutylmethyl)(methyl)carbamoyl)oxy)methyl)-1-methyl-1H-1,2,3-triazol-4-yl)-2-(fluoromethyl)pyridin-3-yl)oxy)cyclohexane-1-carboxylic Acid]
103 nM	COCc1nc(-c2nnn(C)c2COC(=O)N(C)CC2CCC2)ccc1O[C@H]1CCC[C@H](C(=O)O)C1 [Example 268, (1S,3 S)-3-((6-(5-((((cyclobutylmethyl)(methyl)carbamoyl)oxy)methyl)-1-methyl-1H-1,2,3-triazol-4-yl)-2-(methoxymethyl)pyridin-3-yl)oxy)cyclohexane-1-carboxylic Acid]
10 nM	CN(CC1CCC1)C(=O)OCc1c(-c2ccc(O[C@H]3CCC[C@H](C(=O)O)C3)c(C(F)(F)F)n2)nnn1C [Example 269, (1S,3 S)-3-((6-(5-((((cyclobutylmethyl)(methyl)carbamoyl)oxy)methyl)-1-methyl-1H-1,2,3-triazol-4-yl)-2-(trifluoromethyl)pyridin-3-yl)oxy)cyclohexane-1-carboxylic Acid]
11 nM	CCCN(C)C(=O)OCc1c(-c2ccc(O[C@H]3CCC[C@H](C(=O)O)C3)c(C#N)n2)nnn1C [Example 270, (1S,3S)-3-((2-cyano-6-(1-methyl-5-(((methyl(propyl)carbamoyl)oxy)methyl)-1H-1,2,3-triazol-4-yl)pyridin-3-yl)oxy)cyclohexane-1-carboxylic acid]
225 nM	CN(CC1CCC1)C(=O)OCc1c(-c2ccc(O[C@H]3CCC[C@H](C(=O)O)C3)c(C(C)(C)O)n2)nnn1C [Example 271, (1S,3 S)-3-((6-(5-((((cyclobutylmethyl)(methyl)carbamoyl)oxy)methyl)-1-methyl-1H-1,2,3-triazol-4-yl)-2-(2-hydroxypropan-2-yl)pyridin-3-yl)oxy)cyclohexane-1-carboxylic Acid]
4 nM	CCCN(C)C(=O)OCc1c(-c2ccc(O[C@H]3CCC[C@H](C(=O)O)C3)c(OC)n2)nnn1C [Example 272, (1S,3 S)-3-((2-Methoxy-6-(1-methyl-5-(((methyl(propyl)carbamoyl)oxy)methyl)-1H-1,2,3-triazol-4-yl)pyridin-3-yl)oxy)cyclohexane-1-carboxylic Acid]
7 nM	CN(CC1CC1)C(=O)OCc1c(-c2ccc(O[C@H]3CCC[C@H](C(=O)O)C3)c(C(F)(F)F)n2)nnn1C [Example 273, (1S,3S)-3-((6-(5-((((cyclopropylmethyl)(methyl)carbamoyl)oxy)methyl)-1-methyl-1H-1,2,3-triazol-4-yl)-2-(trifluoromethyl)pyridin-3-yl)oxy)cyclohexane-1-carboxylic acid]
28 nM	CCCN(C)C(=O)OCc1c(-c2ccc(O[C@H]3CCC[C@H](C(=O)O)C3)c(C(F)(F)F)n2)nnn1C [Example 274, (1S,3S)-3-((6-(1-methyl-5-(((methyl(propyl)carbamoyl)oxy)methyl)-1H-1,2,3-triazol-4-yl)-2-(trifluoromethyl)pyridin-3-yl)oxy)cyclohexane-1-carboxylic acid]

The remaining lines, values behind:

Compound	IC50
Cc1nc(-c2nnn(C)c2CCOC(=O)N(C)CC(C)C)ccc1O[C@H]1CCC[C@H](C(=O)O)C1 [Example 245, (1S,3S)-3-((6-(5-(2-((Isobutyl-(methyl)carbamoyl)oxy)ethyl)-1-methyl-1H-1,2,3-triazol-4-yl)-2-methylpyridin-3-yl)oxy)cyclohexane-1-carboxylic acid]	69 nM
Cc1nc(-c2nnn(C)c2CCOC(=O)N2CCCC2)ccc1O[C@H]1CCC[C@H](C(=O)O)C1 [Example 246, (2S,3S)-3-((2-Methyl-6-(1-methyl-5-(2-((pyrrolidine-1-carbonyl)oxy)-ethyl)-1H-1,2,3-triazol-4-yl)pyridin-3-yl)oxy)cyclohexane-1-carboxylic acid]	210 nM
Cc1nc(-c2nnn(C)c2CCOC(=O)N(C)C2CCC2)ccc1O[C@H]1CCC[C@H](C(=O)O)C1 [Example 247, (1S,3S)-3-((6-(5-(2-((Cyclobutyl(methyl)carbamoyl)oxy)ethyl)-1-methyl-1H-1,2,3-triazol-4-yl)-2-methylpyridin-3-yl)oxy)cyclo-hexane-1-carboxylic acid]	41 nM
Cc1nc(-c2nnn(C)c2CCOC(=O)NCC2CCC2)ccc1O[C@H]1CCC[C@H](C(=O)O)C1 [Example 248, (1S,3S)-3-((6-(5-(2-(((Cyclobutyl-methyl)carbamoyl)oxy)ethyl)-1-methyl-1H-1,2,3-triazol-4-yl)-2-methylpyridin-3-yl)oxy)cyclohexane-1-carboxylic acid]	144 nM
Cc1nc(-c2nnn(C)c2CCCOC(=O)N(C)Cc2ccccc2)ccc1O[C@H]1CCC[C@H](C(=O)O)C1 [Example 249, (1S,3S)-3-((6-(5-(3-((Benzyl(methyl)carbamoyl)oxy)propyl)-1-methyl-1H-1,2,3-triazol-4-yl)-2-methylpyridin-3-yl)oxy)cyclohexane-1-carboxylic Acid]	122 nM
CCCOCCN(C)C(=O)OCc1c(-c2ccc(O[C@H]3CCC[C@H](C(=O)O)C3)c(C)n2)nnn1C [Example 250, (1S,3S)-3-((2-methyl-6-(1-methyl-5-(((methyl(2-propoxyethyl)carbamoyl)oxy)methyl)-1H-1,2,3-triazol-4-yl)pyridin-3-yl)oxy)cyclohexane-1-carboxylic acid]	314 nM
C[C@@H]1C[C@H]1CN(C)C(=O)OCc1c(-c2ccc(O[C@H]3CCC[C@H](C(=O)O)C3)cn2)nnn1C [Example 251, (1S,3S)-3-((6-(1-methyl-5-(((methyl(((1R,2R)-2-methylcyclopropyl)methyl)carbamoyl)oxy)methyl)-1H-1,2,3-triazol-4-yl)pyridin-3-yl)oxy)cyclohexane-1-carboxylic acid]	27 nM
C[C@H]1C[C@@H]1CN(C)C(=O)OCc1c(-c2ccc(O[C@H]3CCC[C@H](C(=O)O)C3)cn2)nnn1C [Example 252, (1S,3S)-3-((6-(1-methyl-5-(((methyl(((1S,2S)-2-methylcyclopropyl)methyl)carbamoyl)oxy)methyl)-1H-1,2,3-triazol-4-yl)pyridin-3-yl)oxy)cyclohexane-1-carboxylic acid]	29 nM
Cc1nc(-c2nnn(C)c2COC(=O)N(C)CC(C)(C)F)ccc1O[C@H]1CCC[C@H](C(=O)O)C1 [Example 253, (1S,3S)-3-((6-(5-((((2-fluoro-2-methylpropyl)(methyl)carbamoyl)oxy)methyl)-1-methyl-1H-1,2,3-triazol-4-yl)-2-methylpyridin-3-yl)oxy)cyclohexane-1-carboxylic acid]	134 nM
Cc1nc(-c2nnn(C)c2COC(=O)N(C)CCCC(C)F)ccc1O[C@H]1CCC[C@H](C(=O)O)C1 (stereo partly drawn) [Example 256, (1S,3S)-3-((6-(5-((((4-fluoropentyl)(methyl)carbamoyl)oxy)methyl)-1-methyl-1H-1,2,3-triazol-4-yl)-2-methylpyridin-3-yl)oxy)cyclohexane-1-carboxylic acid]	17 nM
Cc1nc(-c2nnn(C)c2COC(=O)N(C)C[C@@H]2C[C@H]2C)ccc1O[C@H]1CCC[C@H](C(=O)O)C1 [Example 257, (1S,3S)-3-((2-methyl-6-(1-methyl-5-(((methyl(((1R,2R)-2-methylcyclopropyl)methyl)carbamoyl)oxy)methyl)-1H-1,2,3-triazol-4-yl)pyridin-3-yl)oxy)cyclohexane-1-carboxylic Acid]	18 nM
Cc1nc(-c2nnn(C)c2COC(=O)N(C)CC(C)(F)F)ccc1O[C@H]1CCC[C@H](C(=O)O)C1 [Example 259, (1S,3 S)-3-((6-(5-((((2,2-difluoropropyl)(methyl)carbamoyl)oxy)methyl)-1-methyl-1H-1,2,3-triazol-4-yl)-2-methylpyridin-3-yl)oxy)cyclohexane-1-carboxylic Acid]	134 nM
Cc1nc(-c2nnn(C)c2COC(=O)N(C)CCC(C)F)ccc1O[C@H]1CCC[C@H](C(=O)O)C1 (stereo partly drawn) [Example 260, (1S,3 S)-3-((6-(5-((((3-fluorobutyl)(methyl)carbamoyl)oxy)methyl)-1-methyl-1H-1,2,3-triazol-4-yl)-2-methylpyridin-3-yl)oxy)cyclohexane-1-carboxylic Acid]	50 nM
Cc1nc(-c2nnn(C)c2COC(=O)N(C)CC(C)F)ccc1O[C@H]1CCC[C@H](C(=O)O)C1 (stereo partly drawn) [Example 261, (1S,3S)-3-((6-(5-((((2-fluoropropyl)(methyl)carbamoyl)oxy)methyl)-1-methyl-1H-1,2,3-triazol-4-yl)-2-methylpyridin-3-yl)oxy)cyclohexane-1-carboxylic acid]	145 nM
